According to ChEMBL document CHEMBL5247668, “Design, synthesis and biological evaluation of novel indole-3-carboxylic acid derivatives with antihypertensive activity” (Bioorg Med Chem Lett, 2023):
Activity calls are given as the source filed them. The rule behind the calls is not given here.

Assays:
[1] = target: T1, Type-1 angiotensin II receptor (Homo sapiens, UniProt P30556); experiment: Displacement of [125I]-Angiotensin II from Angiotensin II type-1 receptor in VSMC cells (unknown origin) by competition radioligand binding assay; assay type: cell-based
T1 sequence (P30556 whole entry): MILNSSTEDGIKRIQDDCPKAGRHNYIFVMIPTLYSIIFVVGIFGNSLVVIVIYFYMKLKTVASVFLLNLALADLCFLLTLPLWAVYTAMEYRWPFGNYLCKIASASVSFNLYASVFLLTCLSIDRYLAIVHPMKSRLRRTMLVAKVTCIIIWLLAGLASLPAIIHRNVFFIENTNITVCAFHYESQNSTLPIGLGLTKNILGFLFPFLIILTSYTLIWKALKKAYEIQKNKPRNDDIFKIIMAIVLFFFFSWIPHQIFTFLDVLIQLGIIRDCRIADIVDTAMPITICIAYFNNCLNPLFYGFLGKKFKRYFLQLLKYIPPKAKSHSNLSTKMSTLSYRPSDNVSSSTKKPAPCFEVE

[2] = target: T1, Type-1 angiotensin II receptor; experiment: Displacement of [125I]-Angiotensin II from Angiotensin II type-1 receptor in VSMC cells (unknown origin) assessed as inhibition constant by competition radioligand binding assay; assay type: cell-based
Rattus norvegicus [3] = experiment: Antihypertensive activity in spontaneously hypertensive rat assessed as decrease in blood pressure at 5 to 10 mg/kg, po; assay type: functional, organism-based; settings: dose 5-10 mg/kg
Rattus norvegicus [4] = experiment: Antihypertensive activity in spontaneously hypertensive rat assessed as decrease in maximal mean blood pressure at 10 mg/kg, po; assay type: functional
[5] = Cmax in spontaneously hypertensive Wistar rat at 10 mg/kg, po; assay type: ADME, organism-based; design: dose 10 mg/kg, route po; settings: in vivo
[6] = Tmax in spontaneously hypertensive Wistar rat at 10 mg/kg, po; assay type: ADME, organism-based; settings: in vivo
[7] = Half life in spontaneously hypertensive Wistar rat at 10 mg/kg, po; assay type: ADME, organism-based; settings: in vivo
[8] = AUC (0 to 72 hrs) in spontaneously hypertensive Wistar rat at 10 mg/kg, po; assay type: ADME, organism-based; design: dose 10 mg/kg, route po; settings: in vivo
[9] = AUC (0 to infinity) in spontaneously hypertensive Wistar rat at 10 mg/kg, po; assay type: ADME, organism-based; design: dose 10 mg/kg, route po; settings: in vivo
[10] = MRT (0 to 72 hrs) in spontaneously hypertensive Wistar rat at 10 mg/kg, po; assay type: ADME, organism-based; settings: in vivo
[11] = MRT (0 to infinity) in spontaneously hypertensive Wistar rat at 10 mg/kg, po; assay type: ADME, organism-based; settings: in vivo
Rattus norvegicus [12] = experiment: Antihypertensive activity in spontaneously hypertensive rat assessed as decrease in maximal mean blood pressure at 10 mg/kg, po measured for 24 hrs; assay type: functional, organism-based

IC50 [1]	Ki [2]	SMILES	Activity (Rattus norvegicus [3])	also measured
32.2 nM	31.4 nM	O=C(O)c1c(COCc2ccccc2)n(C(=O)c2ccccc2)c2ccccc12	Active	
18 nM	16.4 nM	Cc1ccc(S(=O)(=O)n2c(-c3ccccc3)c(C(=O)O)c3ccccc32)cc1	Active	
31.1 nM	30.8 nM	O=C(O)c1c(CO)n(C(=O)c2ccccc2)c2ccccc12	Active	
29.2 nM	28.6 nM	CCCCc1c(C(=O)O)c2ccccc2n1S(C)(=O)=O	Active	
22.2 nM	21.9 nM	CCCCc1c(C(=O)O)c2ccccc2n1C(=O)c1ccccc1	Active	
12.3 nM	11 nM	O=C(O)c1c(-c2ccccc2)n(C(=O)c2ccccc2)c2ccccc12	Active	Activity (Rattus norvegicus [4]): 48.6 mmHg; Cmax [5]: 18.1 ng/mL; Tmax [6]: 2.7 h; half-life [7]: 19.9 h; AUC(0-t) [8]: 253 ng·h/mL; AUC(0-inf) [9]: 260 ng·h/mL; MRT last [10]: 20.2 h; MRT inf [11]: 30.3 h; Activity (Rattus norvegicus [12]): Active
		CCCCc1nc(Cl)c(CO)n1Cc1ccc(-c2ccccc2-c2nnn[nH]2)cc1 [LOSARTAN]		Activity (Rattus norvegicus [4]): 42.5 mmHg
25.5 nM	24.7 nM	CS(=O)(=O)n1c(COCc2ccccc2)c(C(=O)O)c2ccccc21	Active	
22.4 nM	21.7 nM	Cc1ccc(S(=O)(=O)n2c(COCc3ccccc3)c(C(=O)O)c3ccccc32)cc1	Active	
24.2 nM	23.3 nM	Cc1ccc(S(=O)(=O)n2c(CO)c(C(=O)O)c3ccccc32)cc1	Active	
11.3 nM	10.8 nM	CS(=O)(=O)n1c(-c2ccccc2)c(C(=O)O)c2ccccc21	Active	Activity (Rattus norvegicus [4]): 46.3 mmHg; Activity (Rattus norvegicus [12]): Active
27.1 nM	26.3 nM	CS(=O)(=O)n1c(CO)c(C(=O)O)c2ccccc21	Active	
28.3 nM	27.3 nM	CCCCc1c(C(=O)O)c2ccccc2n1S(=O)(=O)c1ccc(C)cc1	Active	
